Experiment [1] concerns S. aureus. The experiment in a line: Contact germicidal efficiency (sterilization time). As to conditions: Example Y, pH 4.6, in presence of horse serum, 468 ppm (80 PPMCl+). The experiment is classed as cell-based, Staphylococcus aureus. The procedure:
CONTACT GERMICIDAL EFFICIENCY OF
(§1) ^a Time intervals screened 0.5, 1, 2, 3, 4 and 5 minutes.
(§2) ^a Time intervals screened 0.5, 1, 2, 3, 4, 5, 6, 7, 8, 9 and 10
(§3) ^a Time intervals screened 0.5, 1, 2, 3, 4, and 5 minutes.
(§4) ^b Time intervals screened 0.5, 1, 2, 3, 4, 5, 6, 7, 8, 9 and 10
(§5) Immediately preceding the screen, the compound is weighed and diluted with a buffer or other solvent to give the final concentration desired. The buffer or solvent chosen depends on the conditions of the screen and could be one of the following: 0.1 M NaOAc, pH 4.6; 0.1 M NaH2 PO4, pH 7.0; 0.1 M Na2 B4 O7, pH 8.8; 35% methanol in one of the aforementioned buffers; 10% Triton × 100 in buffer, etc.
(§6) The positive chlorine concentration of the test solution is then determined iodometrically.
Media used for the Screen are Nutrient Broth, BBL# 11479 and Nutrient Agar, BBL# 11472 prepared according to label directions. The broth is dispensed in 75 ml amounts of flasks for overnight cultures and in 5 ml amounts to culture tubes for subculturing during the Screen. Agar plates are prepared as usual. […]
A 0.2 ml portion of the overnight culture is inoculated into 5 ml of 0.9% NaCl for use in controls. […] The earliest subculture time at which no growth is present in the subculture tube is considered the endpoint and is recorded as that time, e.g., 7 minutes. […]

Experiment [2] relates to S. epidermidis. Description: Contact germicidal efficiency (sterilization time). It is filed as cell-based, Staphylococcus epidermidis. To be noted: S. epidermidis. The procedure:
CONTACT GERMICIDAL EFFICIENCY OF N-CHLORAMINES AS A FUNCTION
as §1, §2, §3, §4, §5, §6
Media used for the Screen are Nutrient Broth, BBL# 11479 and Nutrient Agar, BBL# 11472 prepared according to label directions. The broth is dispensed in 75 ml amounts of flasks for overnight cultures and in 5 ml amounts to culture tubes for subculturing during the Screen. Agar plates are prepared as usual.
Overnight cultures are prepared by inoculating from stock cultures into the 75 ml flasks of nutrient broth and incubating for 15 hours at 37° C.
The iodometrically characterized test solution is dispensed in 5 ml amounts to seven small stoppered flasks. The organisms are screened one at a time as follows:
A 0.2 ml portion of the overnight culture is inoculated into 5 ml of 0.9% NaCl for use in controls. A 0.2 ml portion of the overnight culture is inoculated into a flask containing 5 ml of the test solution, an automatic timer is simultaneously triggered and the solution mixed. At time intervals of 30 seconds, 1, 2, 3, 4, 5, 6, 7, 8, 9, and 10 minutes a loopful of the inoculated solution is subcultured into 5 ml of sterile nutrient broth and mixed by a Vortex Genie Mixer, the high dilution serving to stop the action of the compound. At the end of the ten minute screen, the entire procedure is repeated for each of the remaining six organisms. All of the subculture tubes are incubated at 37° C and checked for signs of growth by turbidity at 24 hr., 48 hr., 3, 5, and 7 days. The earliest subculture time at which no growth is present in the subculture tube is considered the endpoint and is recorded as that time, e.g., 7 minutes.
The test solution is prepared and characterized as above but is made up at twice the concentration desired. The solution is diluted 1:1 with Rehydrated Tissue Culture Dessicated Horse Serum, Difco #5357-72 and dispensed in a 5 ml amount to a small flask. The mixture is incubated at Room Temperature for 30 minutes to allow denaturation of the compound by the serum and then screened as above.
The 5 ml mixture of serum and test solution are prepared in sequence to allow as close to 30 minutes as possible before the beginning of the screen of each organism.
(§7) Bacteria: Staphylococcus aureas Smith (or 209), Escherichia coli AB 1932-1, 1100/B22 and Vogel, Streptococcus pyogenes C203 Salmonella typhimurium 14028, Bacillus subtilis 6051-1, Klebsiella pneumoniae 10031, Pseudomonas aeruginosa 9027, Bordetella bronchiseptica 4617 and Staphylococcus epidermidis 12228.

For experiment [3], the system named is T. mentagrophytes. The experiment in a line: Minimal inhibitory concentration (MIC), Example V. It is filed as cell-based. As to conditions: Trichophyton mentagrophytes. The text has this:
(§8) MINIMAL INHIBITORY CONCENTRATION OF 2-AMINO-2-METHYL-1-PROPYL
(§9) ^a Minimal inhibitory concentration expressed in parts per million
(§10) sequence inhibited the test organism at the higher concentrations.
(§11) THE ANTIBACTERIAL SCREEN - EXAMPLE V

In experiment [4] the test system is C. albicans. Description: Minimal inhibitory concentration (MIC), Example V. It is filed as cell-based. To be noted: Candida albicans.
Source text: MINIMAL INHIBITORY CONCENTRATION OF 2-AMINO-2-METHYL-1-PROPYL […]
as §11

For experiment [5], the system named is K. pneumoniae. Description: Minimal inhibitory concentration (MIC), Example V. The experiment is classed as cell-based. As to conditions: Klebsiella pneumoniae. The procedure:
as §8, §9, §10, §11
Klebsiella pneumoniae ATCC# 10031
THE ANTIBACTERIAL SCREEN - EXAMPLES W - Z (Autotiter IV)
(a) Compounds. All compounds to be screened are weighed (approx. 10 mg) on the day preceding the test date. Each compound is solubilized on the day of assay in appropriate solvent and diluted automatically in the Autotiter IV with distilled water (buffer can be employed here also).
as §7
(c) Inocula. Prior to utilization in the Autotiter IV, all bacteria are cultured for 18-20 hr. (37° C) in tryptose phosphate broth (TP), except, S. pyogenes C203, which is cultured in Brain Heart Infusion broth plus 10% normal horse serum. Immediately prior to testing, each culture is adjusted to an optical density of 0.10 (650 nm), employing a Bausch & Lomb Spectronic 20, and diluted subsequently into double strength medium to approximately 2 × 10^5 viable organisms per ml.
1. An automated injector system dispenses 0.05 ml of diluent (sterile H2 O or buffer) to all cups of the autotiter trays from rows 2 through 7.
2. The loops (for sequential dilutions of the compounds are moistened by immersion into 70% ethyl alcohol. After removal of excess alcohol by blotting, the loops are moved to the first row of cups in the autotray containing 0.10 ml of the compound to be diluted and tested (usually, this initial concentration is 500 to 1000 mcg/ml, but can be varied upward or downward). The loops are lowered and sequentially transfer the diluted solutions of the compound through row 7.
Immediately after each dilution is made, each cup is automatically inoculated with 0.05 ml of the appropriate test organism. This inoculation derives from a second injector system containing the organism in double-strength medium. The total operation consists of the automatic dilution of a single compound in each of 8 rows of the Autotiter try.
After these operations, we reverse the tray and a second compound is diluted over the other one-half of the tray and inoculated, subsequently, with 8 organisms. Thus, for each Autotiter Tray, two compounds are screened against 8 different organisms at dilutions ranging from 1:2 to 1:128.
(e) Incubation. The inoculated Autotiter trays are incubated at 37° C for 18 - 20 hr. At the end of this period, each tray is examined for the presence or absence of growth (turbidity). The lowest concentration of the compound inhibiting growth is recorded as the minimal inhibitory concentration (MIC).

Bounds are passed on as bounds.

Consider `CC(C)(COC(=O)C(C)(C)C)NCl` [IV c, 2-N-Chloroamino-2-methyl-1-propyl 2,2-dimethylproprionate], for which the “Sterilization Time” value was above 10 min in experiment [1]; 0.5 min in experiment [2] (Example X, pH 4.6, no horse serum, IV c 404 ppm (69 PPMCl+), IV g 489 ppm (143 PPMCl+)); 3 min in experiment [2] (Example X, pH 7.0, no horse serum, IV c 1886 ppm (323 PPMCl+), IV g 409 ppm (120 PPMCl+)); 4 min in experiment [2] (Example X, pH 9.3, no horse serum, IV c 1704 ppm (292 PPMCl+), IV g 319 ppm (94 PPMCl+)); above 10 min in experiment [2] (Example Y, pH 4.6, in presence of horse serum, 468 ppm (80 PPMCl+)). The MIC in experiment [3], in experiment [4] and in experiment [5] was above 250 µg/mL throughout.

(Values after US4092420A, “Novel soft N-chloroamino alcohol derivatives exhibiting antibacterial activity” (INTERx Research Corporation, priority 1977, dated 1978).)
